Results published in patent publication US10556907B2 (AbbVie Inc., priority 2015, dated 2020).
Read-outs that look alike come from different tables or passages of the source.

Tests used:
Assay in all cases: Method 1: intracellular Ca2+ release (FLIPR, Calcium 5) in recombinant CHO-K1 cells
Assay type in all cases: cell-based
[1] = target: T1, human S1PR1 receptor (Homo sapiens, UniProt P21453); details: (1): determined with method 1; read-out: S1P1 EC50
T1 construct: host or cells: CHO-K1
Method: (§1) Agonistic activity was measured using two different methods, described below.
(§2) Method 1. Intracellular Ca^2+ Release
(§3) Agonist potency and intrinsic activity was assessed by measurement of intracellular Ca^2+ release. Recombinant CHO-K1 cells (Euroscreen, Brussels, Belgium) expressing human S1PR5, S1PR1, S1PR3 or S1PR4 receptors, aequorin, and GTP binding protein Gq/i5 were cultured using a medium containing nutrient mixture F-12 Ham (Sigma-Aldrich) with 10% FBS, and 100 μg/mL gentamicin and equilibrated at 5% CO2.
(§4) 15.000 cells in 20 μL medium were seeded into Biocoat poly-D-Lysine coated 384 well plates (Becton Dickinson #35-6663) and grown to 95% confluency after 24 h.
(§5) Culture medium was replaced by an assay buffer consisting of HBBS with Ca^2+ and Mg^2+ (Invitrogen #14025-050), 20 mmol/L Hepes (Sigma-Aldrich #H-3375), 2.5 mmol/L probenecid (Sigma-Aldrich #P-8761, and 0.1% BSA (Sigma-Aldrich #A-7030) pH 7.4. The Calcium 5 no-wash FLIPR assay kit (Molecular Devices #5000625) was performed as described in the kit instructions. Cells were incubated with Calcium 5 dye for 1 h at 37° C., 5% CO2 in the dark. After 45 min adaptation to RT assessment of agonist stimulation of intracellular Ca^2+ release was performed by addition of test compounds at concentrations obtained by serial dilution. Phospho-fingolimod was used as positive control. Antagonists were pre-incubated for 10 min with cells before addition of the agonist (phospho-fingolimod at EC80). Measurements were performed using a fluorometric imaging plate reader FLIPR® tetra (Molecular Devices). Agonist at the human S1P receptors were characterized by deducing EC50 (potency) values from a nonlinear fit to the measured fluorescence raw data after normalization to the reference agonist (phospho-fingolimod) curve.

[2] = target: T2, human S1PR3 receptor (Homo sapiens, UniProt Q99500); details: (1): determined with method 1; read-out: S1P3 EC50
T2 construct: host or cells: CHO-K1
Method: as §1, §2, §3, §4, §5

[3] = target: T3, human S1PR5 receptor (Homo sapiens, UniProt Q9H228)
T3 construct: host or cells: CHO-K1
Method: as §1, §2, §3, §4, §5

[4] = agonist potency, determined with method 1 (symbols A-D), read-out: S1P5 EC50 range

T1 sequence (P21453 whole entry): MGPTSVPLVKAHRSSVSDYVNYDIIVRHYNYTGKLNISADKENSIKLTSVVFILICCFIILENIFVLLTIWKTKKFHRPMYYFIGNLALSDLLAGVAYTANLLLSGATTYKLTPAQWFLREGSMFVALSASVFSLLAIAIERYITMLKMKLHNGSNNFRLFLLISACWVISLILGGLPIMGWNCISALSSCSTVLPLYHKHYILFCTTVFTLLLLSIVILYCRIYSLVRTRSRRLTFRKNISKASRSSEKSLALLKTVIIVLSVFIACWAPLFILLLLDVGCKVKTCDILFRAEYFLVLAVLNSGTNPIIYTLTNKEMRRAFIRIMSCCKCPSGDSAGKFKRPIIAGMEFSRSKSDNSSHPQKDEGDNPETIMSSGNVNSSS
T2 sequence (Q99500 whole entry): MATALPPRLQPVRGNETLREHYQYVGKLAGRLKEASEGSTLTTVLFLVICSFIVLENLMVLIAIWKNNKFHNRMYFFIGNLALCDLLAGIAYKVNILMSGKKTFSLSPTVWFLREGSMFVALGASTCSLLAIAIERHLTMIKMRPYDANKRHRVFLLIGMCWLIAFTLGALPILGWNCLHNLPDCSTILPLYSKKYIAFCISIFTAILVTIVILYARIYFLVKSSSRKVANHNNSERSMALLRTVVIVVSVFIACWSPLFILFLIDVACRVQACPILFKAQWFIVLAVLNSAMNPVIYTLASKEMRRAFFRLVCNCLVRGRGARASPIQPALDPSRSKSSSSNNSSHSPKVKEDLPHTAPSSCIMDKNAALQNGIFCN
T3 sequence (Q9H228 whole entry): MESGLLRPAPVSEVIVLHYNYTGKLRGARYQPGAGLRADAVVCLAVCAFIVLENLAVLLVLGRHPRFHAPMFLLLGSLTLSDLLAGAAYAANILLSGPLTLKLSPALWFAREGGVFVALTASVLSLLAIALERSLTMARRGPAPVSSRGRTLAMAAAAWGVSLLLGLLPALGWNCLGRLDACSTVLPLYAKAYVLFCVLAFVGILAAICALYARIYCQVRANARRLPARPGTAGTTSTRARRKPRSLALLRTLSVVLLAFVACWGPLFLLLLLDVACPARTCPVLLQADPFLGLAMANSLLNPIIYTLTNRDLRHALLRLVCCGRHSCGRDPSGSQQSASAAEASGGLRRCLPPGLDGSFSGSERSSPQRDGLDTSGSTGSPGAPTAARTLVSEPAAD

SMILES | EC50 [1] [µM] | EC50 [2] [µM] | EC50 [3, 4] [µM] | EC50 ([3]; (1): determined with method 1, read-out: S1P5 EC50 range (bound printed instead of class symbol)) [µM]
CC(CC(=O)O)CN1CCc2nc(-c3ccc(OCc4ccc(Cl)cc4)cc3)ncc2C1 (single isomer, unassigned; (-)) [Compound 213, (−)-4-(2-(4-((4-chlorobenzyl)oxy)phenyl)-7,8-dihydropyrido[4,3-d]pyrimidin-6(5H)-yl)-3-methylbutanoic acid] | > 1 | > 1 | 0.01 to 0.1 | 
CC(CN1CCc2nc(-c3ccc(OCc4cccc(Cl)c4)cc3)ncc2C1)C(=O)O (stereo not shown) [Compound 10, 3-(2-(4-((3-chlorobenzyl)oxy)phenyl)-7,8-dihydropyrido[4,3-d]pyrimidin-6(5H)-yl)-2-methylpropanoic acid] | > 1 | > 1 | < 0.01 | 
CC(CN1CCc2nc(-c3ccc(OCc4ccc(F)c(F)c4)cc3)ncc2C1)C(=O)O (stereo not shown) [Compound 11, 3-(2-(4-((3,4-difluorobenzyl)oxy)phenyl)-7,8-dihydropyrido[4,3-d]pyrimidin-6(5H)-yl)-2-methylpropanoic acid] | > 1 | > 1 | < 0.01 | 
Cc1cccc(C)c1COc1ccc(-c2ncc3c(n2)CCN(CC(C)C(=O)O)C3)cc1 (stereo not shown) [Compound 15, 3-(2-(4-((2,6-dimethylbenzyl)oxy)phenyl)-7,8-dihydropyrido[4,3-d]pyrimidin-6(5H)-yl)-2-methylpropanoic acid] | < 1 | > 1 | < 0.01 | 
CC(CN1CCc2nc(-c3ccc(OCc4cccc(F)c4F)cc3)ncc2C1)C(=O)O (stereo not shown) [Compound 16, 3-(2-(4-((2,3-difluorobenzyl)oxy)phenyl)-7,8-dihydropyrido[4,3-d]pyrimidin-6(5H)-yl)-2-methylpropanoic acid] | < 1 | > 1 | < 0.01 | 
CC(CC(=O)O)CN1CCc2nc(-c3ccc(OCc4ccccc4)cc3)ncc2C1 (stereo not shown) [Compound 21, 4-(2-(4-(benzyloxy)phenyl)-7,8-dihydropyrido[4,3-d]pyrimidin-6(5H)-yl)-3-methylbutanoic acid] | > 1 | > 1 | 0.01 to 0.1 | 
CC(CC(=O)O)N1CCc2nc(-c3ccc(OCc4ccccc4)cc3)ncc2C1 (stereo not shown) [Compound 36, 3-(2-(4-(benzyloxy)phenyl)-7,8-dihydropyrido[4,3-d]pyrimidin-6(5H)-yl)butanoic acid] | > 1 | > 1 | 0.1 to 1 | 
O=C(O)CCCN1CCc2nc(-c3ccc(OCc4ccccc4)cc3)ncc2C1 [Compound 37, 4-(2-(4-(benzyloxy)phenyl)-7,8-dihydro-dihydropyrido[4,3-d]pyrimidin-6(5H)-yl)butanoic acid] | > 1 | > 1 | 0.01 to 0.1 | 
O=C(O)CCCN1CCc2nc(-c3ccc(OCc4cccc(Cl)c4)cc3)ncc2C1 [Compound 38, 4-(2-(4-((3-chlorobenzyl)oxy)phenyl)-7,8-dihydropyrido[4,3-d]pyrimidin-6(5H)-yl)butanoic acid] | > 1 | > 1 | < 0.01 | 
CC(CC(=O)O)N1CCc2nc(-c3ccc(OCc4cccc(F)c4)cc3)ncc2C1 (stereo not shown) [Compound 41, 3-(2-(4-((3-fluorobenzyl)oxy)phenyl)-7,8-dihydropyrido[4,3-d]pyrimidin-6(5H)-yl)butanoic acid] | > 1 | > 1 | < 0.01 | 
CC(CC(=O)O)N1CCc2nc(-c3ccc(OCc4ccc(F)c(F)c4)cc3)ncc2C1 (stereo not shown) [Compound 42, 3-(2-(4-((3,4-difluorobenzyl)oxy)phenyl)-7,8-dihydropyrido[4,3-d]pyrimidin-6(5H)-yl)butanoic acid] | > 1 | > 1 | < 0.01 | 
CC(CC(=O)O)N1CCc2nc(-c3ccc(OCc4cccc(Cl)c4)cc3)ncc2C1 (stereo not shown) [Compound 43, 3-(2-(4-((3-chlorobenzyl)oxy)phenyl)-7,8-dihydropyrido[4,3-d]pyrimidin-6(5H)-yl)butanoic acid] | > 1 | > 1 | 0.1 to 1 | 
CC(CC(=O)O)N1CCc2nc(-c3ccc(OCc4ccc(Cl)cc4)cc3)ncc2C1 (stereo not shown) [Compound 44, 3-(2-(4-((4-chlorobenzyl)oxy)phenyl)-7,8-dihydropyrido[4,3-d]pyrimidin-6(5H)-yl)butanoic acid] | > 1 | > 1 | 0.01 to 0.1 | 
CC(C)Oc1ccc(-c2ncc3c(n2)CCN(CCCC(=O)O)C3)cc1 [Compound 46, 4-(2-(4-isopropoxyphenyl)-7,8-dihydropyrido[4,3-d]pyrimidin-6(5H)-yl)butanoic acid] | > 1 | > 1 | 1 to 10 | 
CC(C)Oc1ccc(-c2ncc3c(n2)CCN(CCCC(=O)O)C3)cc1Cl [Compound 47, 4-(2-(3-chloro-4-isopropoxyphenyl)-7,8-dihydropyrido[4,3-d]pyrimidin-6(5H)-yl)butanoic acid] | > 1 | > 1 | 1 to 10 | 
O=C(O)CCCN1CCc2nc(C#Cc3ccccc3)ncc2C1 [Compound 48, 4-(2-(phenylethynyl)-7,8-dihydropyrido[4,3-d]pyrimidin-6(5H)-yl)butanoic acid] | > 1 | > 1 | 1 to 10 | 
O=C(O)CCCN1CCc2nc(C#Cc3cc(F)ccc3F)ncc2C1 [Compound 49, 4-(2-((2,5-difluorophenyl)ethynyl)-7,8-dihydropyrido[4,3-d]pyrimidin-6(5H)-yl)butanoic acid] | > 1 | > 1 | 1 to 10 | 
O=C(O)CCN1CCc2nc(-c3ccc(OCc4ccccc4)cc3)ncc2C1 [Compound 67, 3-(2-(4-(benzyloxy)phenyl)-7,8-dihydropyrido[4,3-d]pyrimidin-6(5H)-yl)propanoic acid] | > 1 | > 1 | 0.01 to 0.1 | 
O=C(O)CCN1CCc2nc(-c3ccc(OCc4cccc(F)c4)cc3)ncc2C1 [Compound 68, 3-(2-(4-((3-fluorobenzyl)oxy)phenyl)-7,8-dihydropyrido[4,3-d]pyrimidin-6(5H)-yl)propanoic acid] | > 1 | > 1 | 0.01 to 0.1 | 
O=C(O)CCN1CCc2nc(-c3ccc(OCc4ccc(F)c(F)c4)cc3)ncc2C1 [Compound 71, 3-(2-(4-((3,4-difluorobenzyl)oxy)phenyl)-7,8-dihydropyrido[4,3-d]pyrimidin-6(5H)-yl)propanoic acid] | > 1 | > 1 | < 0.01 | 
O=C(O)CCN1CCc2nc(-c3ccc(OCc4cccc(Cl)c4)cc3)ncc2C1 [Compound 72, 3-(2-(4-((3-chlorobenzyl)oxy)phenyl)-7,8-dihydropyrido[4,3-d]pyrimidin-6(5H)-yl)propanoic acid] | > 1 | > 1 | < 0.01 | 
O=C(O)CCN1CCc2nc(-c3ccc(OCc4ccc(Cl)c(Cl)c4)cc3)ncc2C1 [Compound 73, 3-(2-(4-((3,4-dichlorobenzyl)oxy)phenyl)-7,8-dihydropyrido[4,3-d]pyrimidin-6(5H)-yl)propanoic acid] | > 1 | > 1 | < 0.01 | 
CC(C)Oc1ccc(-c2ncc3c(n2)CCN(CCC(=O)O)C3)cc1 [Compound 75, 3-(2-(4-isopropoxyphenyl)-7,8-dihydropyrido[4,3-d]pyrimidin-6(5H)-yl)propanoic acid] | > 1 | > 1 | 1 to 10 | 
O=C(O)CCN1CCc2nc(-c3ccc(OCc4cccc(C(F)F)c4)cc3)ncc2C1 [Compound 76, 3-(2-(4-((3-difluoromethylbenzyl)oxy)phenyl)-7,8-dihydropyrido[4,3-d]pyrimidin-6(5H)-yl)propanoic acid] | > 1 | > 1 | < 0.01 | 
O=C(O)CC1(CN2CCc3nc(-c4ccc(OCc5ccc(Cl)cc5)cc4)ncc3C2)CC1 [Compound 286, 2-((4(2-(4-((4-chlorobenzyl)oxy)phenyl)-7,8-dihydropyrido[4,3-d]pyrimidin-6(5H)-yl)methyl)cyclopropyl)acetic acid] |  |  | 0.1 to 1 | 
CC(CC(=O)O)CN1Cc2cnc(-c3ccc(OCc4ccc(Cl)cc4)cc3)nc2CC12CCC2 (stereo not shown) [Compound 326, 4-(2′-(4-((4-chlorobenzyl)oxy)phenyl)-5′H-spiro[cyclobutane-1,7′-pyrido[4,3-d]pyrimidin]-6′(8′H)-yl)-3-methylbutanoic acid] |  | > 1 |  | > 1
O=C(O)CC1(CN2CCc3nc(-c4ccc(OCc5cccc(Cl)c5)cc4)ncc3C2)CC1 [Compound 327, 2-((4(2-(4-((3-chlorobenzyl)oxy)phenyl)-7,8-dihydropyrido[4,3-d]pyrimidin-6(5H)-yl)methyl)cyclopropyl)acetic acid] |  |  | 1 to 10 | 
